The source of these data is patent US8624034B2, “Fluoro-pyridinone derivatives useful as antibacterial agents” (Pfizer Inc., priority 2011, dated 2014).

Converted amounts (≈) assume the structure as drawn. Where two headings read alike, the source gives them in different places.

The test system of assay [1] is Acinetobacter baumannii/haemolyticus, multidrug-resistant clinical isolate (AB-3167). Kind of assay: MIC determination, AB-3167. In kind it is cell-based. The method in brief:
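Broth dilution MIC per CLSI M7-A8, 2-fold drug series, overnight incubation, lowest concentration visibly inhibiting growth against drug-free control. Run in duplicate, lower value reported; duplicates differing >2-fold repeated; QC strains and reference compounds required in range.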

Assay [2] relates to Escherichia coli EC-1: VOGEL, mouse virulent. Kind of assay: MIC determination, EC-1. In kind it is cell-based. The conditions noted are these: Escherichia coli. The method in brief: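 MIC against mouse-virulent E. coli EC-1 (VOGEL) was determined by CLSI M7-A8 broth dilution with 2-fold drug increments and overnight incubation. The MIC is the lowest concentration with no visible growth versus drug-free control. Tests were run in duplicate and the lower value reported if within 2-fold, with QC organisms and reference drugs in each run.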

For assay [3], the target named is T1, Pseudomonas aeruginosa LpxC enzyme (Pseudomonas aeruginosa, UniProt P47205).
T1 construct: made in house; host or cells: E. coli
T1 sequence (P47205 1-303): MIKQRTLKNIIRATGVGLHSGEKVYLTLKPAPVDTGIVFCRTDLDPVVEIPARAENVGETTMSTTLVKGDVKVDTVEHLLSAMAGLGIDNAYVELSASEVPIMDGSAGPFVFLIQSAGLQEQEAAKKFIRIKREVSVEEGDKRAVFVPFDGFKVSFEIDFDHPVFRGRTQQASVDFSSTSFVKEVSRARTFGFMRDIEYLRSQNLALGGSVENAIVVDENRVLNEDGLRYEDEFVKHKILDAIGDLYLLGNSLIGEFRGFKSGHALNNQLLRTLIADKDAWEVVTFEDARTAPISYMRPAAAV
Kind of assay: IC50 assay, LpxC enzyme from P. aeruginosa (PA LpxC enzyme IC50). In kind it is biochemical. The conditions noted are these: LpxC enzyme 0.1 nM, 25° C., 1 hour, read-out: PA:IC50. The essentials:
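The LpxC reaction ran 1 hour and was stopped with HCl. Substrate-to-product conversion was measured by RapidFire mass spectrometry, and IC50 values were calculated from percent conversion relative to a no-enzyme control.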

Assay [4] concerns Pseudomonas aeruginosa UI-18: wild-type (PA-7). Kind of assay: MIC determination, PA-7. In kind it is cell-based. The conditions noted are these: Table 2, lower of duplicate values. The procedure:
The in vitro antibacterial activity of compounds described in the Examples was evaluated by minimum inhibitory concentration (MIC) testing according to Clinical and Laboratory Standards Institute (CLSI). See: Clinical and Laboratory Standards Institute. Methods for Dilution Antimicrobial Susceptibility Tests for Bacteria that Grow Aerobically; Approved Standard-Eighth Edition. CLSI document M7-A8 [ISBN 1-56238-689-1]. Clinical and Laboratory Standards Institute, 940 West Valley Road, Suite 1400, Wayne, Pa. 19087-1898 USA, 2006; also Clinical and Laboratory Standards Institute. Performance Standards for Antimicrobial Susceptibility Testing; Twentieth Informational Supplement. CLSI document M100-S20 [ISBN 1-56238-716-2]. Clinical and Laboratory Standards Institute.
The MIC determination is a standard laboratory method for evaluating the antibacterial activity of a compound. The MIC represents the lowest drug concentration that inhibits visible growth of bacteria following overnight incubation. […] Typically, the drug concentration range is broken down into 2-fold increments (e.g. 0.06 μg/mL, 0.12 μg/mL. 0.25 μg/mL, 0.50 μg/mL, 1.0 μg/mL, etc.) and the various drug concentrations are all individually incubated overnight with approximately the same number of bacteria. The MIC is then determined by visually inspecting the drug effect at each concentration, and identifying the lowest drug concentration that has inhibited bacterial growth as compared to the drug free control. Typically, bacteria continue to grow at drug concentrations lower than the MIC and don't grow at concentrations at and above the MIC.
The MIC values described in Table 2 and 3 below were derived from assays wherein each test compound was evaluated in duplicate. In cases where the duplicate values varied by 0-2-fold, the lower of the two values was reported below. Generally speaking, if the duplicate values varied by more than 2-fold, the assay was considered non-valid and was repeated until the variation between duplicate runs was ≦2-fold. In line with the CLSI guidelines referred to above, both control organisms and reference compounds were utilized in each MIC assay to provide proper quality control. MIC values generated with these control organisms and reference compounds were required to fall within a defined range for the assay to be considered valid and be included herein. Those skilled in the art will recognize that MIC values can and do vary from experiment to experiment. Generally speaking, it should be recognized that MIC values often vary +/−2-fold from experiment to experiment. While a single MIC is reported for each compound and each microorganism, the reader should not conclude that each compound was only tested once. Several of the compounds were subjected to multiple tests. The data reported in Tables 2 and 3 is reflective of the compounds relative activity and different MICs may have been generated on these occasions in line with the guidelines described above.
The following bacterial strains were used in these MIC determinations:
1) Pseudomonas aeruginosa UI-18: Wild-type, labeled as PA-7 in Tables 2 and 3;

A further assay has as its system PA:UC12120. The assay is described as follows: MIC determination, PA:UC12120 (Table 3). In kind it is cell-based, Pseudomonas aeruginosa. The settings on record: Pseudomonas aeruginosa, UC12120, Table 3, lower of duplicate values. The essentials:
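CLSI broth dilution MIC with 2-fold concentration steps, overnight incubation; MIC is the lowest concentration visibly inhibiting growth versus drug-free control. Run in duplicate, lower value reported when within 2-fold; control organisms and reference compounds required within defined ranges.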

[5] abbreviates: Table 2, lower of duplicate values.
Setting [6] is: read-out: EC-1 (MIC), Table 2, lower of duplicate values.
The mark [7] stands for this setting: Table 3, lower of duplicate values.
The mark [8] stands for this setting: read-out: EC-1 (MIC), Table 3, lower of duplicate values.

On to `C[C@@](CCn1cc(F)c(-c2ccc(-n3ncnn3)cc2)cc1=O)(C(=O)NO)S(C)(=O)=O` [Example 1, (2R)-4-{5-fluoro-2-oxo-4-[4-(2H-tetrazol-2-yl)phenyl]pyridin-1(2H)-yl}-N-hydroxy-2-methyl-2-(methylsulfonyl)butanamide], for which the minimal inhibitory concentration (MIC) is over 64 µg/mL in assay [1] (setting [5]), over 64 µg/mL in assay [2] (setting [6]) and 32 µg/mL (≈ 71 µM) in assay [4]. Also, in assay [3] (Table 2), the IC50 is 1.49 nM.
On to `Cc1cccc(-c2cc(=O)n(CC[C@](C)(C(=O)NO)S(C)(=O)=O)cc2F)c1F` [Example 2, (2R)-4-[5-Fluoro-4-(2-fluoro-3-methylphenyl)-2-oxopyridin-1(2H)-yl]-N-hydroxy-2-methyl-2-(methylsulfonyl)butanamide], for which the MIC in assay [1] (setting [5]) was over 64 µg/mL; in assay [2] (setting [6]), 0.25 µg/mL (≈ 0.603 µM); in assay [4], 0.25 µg/mL (≈ 0.603 µM). Further, the IC50 in assay [3] (Table 2) was found to be 0.595 nM.
For `C[C@@](CCn1cc(F)c(-c2ccc(Cl)cc2)cc1=O)(C(=O)NO)S(C)(=O)=O` [Example 3, (2R)-4-[4-(4-Chlorophenyl)-5-fluoro-2-oxopyridin-1(2H)-yl]-N-hydroxy-2-methyl-2-(methylsulfonyl)butanamide], the MIC in assay [1] (setting [5]) was 64 µg/mL (≈ 154 µM); in assay [2] (setting [6]) it was 0.25 µg/mL (≈ 0.6 µM); in assay [4] it was 0.25 µg/mL (≈ 0.6 µM). The IC50 in assay [3] (Table 2) worked out at 0.325 nM.
Consider `C[C@@](CCn1cc(F)c(-c2ccccc2F)cc1=O)(C(=O)NO)S(C)(=O)=O` [Example 4, (2R)-4-[5-Fluoro-4-(2-fluorophenyl)-2-oxopyridin-1(2H)-yl]-N-hydroxy-2-methyl-2-(methylsulfonyl)butanamide], for which the MIC in assay [1] (setting [5]) was over 64 µg/mL; in assay [2] (setting [6]), 2 µg/mL (≈ 4.99 µM); in assay [4], 0.5 µg/mL (≈ 1.25 µM). In addition, the IC50 in assay [3] (Table 2) came out at 0.717 nM.
For `Cc1cc(-c2cc(=O)n(CC[C@](C)(C(=O)NO)S(C)(=O)=O)cc2F)ccc1-n1nccn1` [Example 37, (2R)-4-{5-Fluoro-4-[3-methyl-4-(2H-1,2,3-triazol-2-yl)phenyl]-2-oxopyridin-1(2H)-yl}-N-hydroxy-2-methyl-2-(methylsulfonyl)butanamide], the MIC in assay [1] (setting [5]) was over 64 µg/mL; in assay [2] (setting [6]) it was 0.5 µg/mL (≈ 1.08 µM); in assay [4], 1 µg/mL (≈ 2.16 µM).
In the same order, the values of `C[C@@](CCn1cc(F)c(-c2ccc3c(c2)OC(F)(F)O3)cc1=O)(C(=O)NO)S(C)(=O)=O` [Example 47, (2R)-4-[4-(2,2-Difluoro-1,3-benzodioxol-5-yl)-5-fluoro-2-oxopyridin-1(2H)-yl]-N-hydroxy-2-methyl-2-(methylsulfonyl)butanamide] are over 64 µg/mL, 0.25 µg/mL (≈ 0.541 µM) and 0.5 µg/mL (≈ 1.08 µM).
Turning to `Cc1cc(-c2cc(=O)n(CCC(C)(C(=O)NO)S(C)(=O)=O)cc2F)ccc1C#N` (stereo not shown) [Example 114, 4-[4-(4-cyano-3-methylphenyl)-5-fluoro-2-oxopyridin-1(2H)-yl]-N-hydroxy-2-methyl-2-(methylsulfonyl)butanamide], the MIC against PA:UC12120 was 2 µg/mL (≈ 4.75 µM); in assay [1] (setting [7]) it was over 64 µg/mL; in assay [2] (setting [8]) it was 4 µg/mL (≈ 9.49 µM). In assay [3] (Table 3), the IC50 was determined as 1.3 nM.
With `CN(C)c1ncc(-c2cc(=O)n(CCC(C)(C(=O)NO)S(C)(=O)=O)cc2F)cn1` (stereo not shown) [Example 115, 4-{4-[2-(dimethylamino)pyrimidin-5-yl]-5-fluoro-2-oxopyridin-1(2H)-yl}-N-hydroxy-2-methyl-2-(methylsulfonyl)butanamide], the values for the MIC (in the assay with PA:UC12120; in assay [1] (setting [7]); in assay [2] (setting [8])) were 32 µg/mL (≈ 74.9 µM), over 64 µg/mL and 32 µg/mL (≈ 74.9 µM), respectively. Besides, in assay [3] (Table 3), the IC50 is 74.1 nM.
In the case of `CC(CCn1cc(F)c(-c2cccc(F)c2)cc1=O)(C(=O)NO)S(C)(=O)=O` (stereo not shown) [Example 116, 4-[5-fluoro-4-(3-fluorophenyl)-2-oxopyridin-1(2H)-yl]-N-hydroxy-2-methyl-2-(methylsulfonyl)butanamide], the figures for the MIC (against PA:UC12120; in assay [1] (setting [7]); in assay [2] (setting [8])) were 1 µg/mL (≈ 2.5 µM), over 64 µg/mL and 4 µg/mL (≈ 9.99 µM), respectively. In addition, the IC50 in assay [3] (Table 3) stood at 1 nM.
As to `CC(CCn1cc(F)c(-c2cccc(F)c2F)cc1=O)(C(=O)NO)S(C)(=O)=O` (stereo not shown) [Example 117, 4-[4-(2,3-difluorophenyl)-5-fluoro-2-oxopyridin-1(2H)-yl]-N-hydroxy-2-methyl-2-(methylsulfonyl)butanamide], the MIC against PA:UC12120 is 0.5 µg/mL (≈ 1.2 µM); in assay [1] (setting [7]), over 64 µg/mL; in assay [2] (setting [8]), 2 µg/mL (≈ 4.78 µM). In addition, the concentration for half-maximal inhibition (IC50) in assay [3] (Table 3) was determined as 0.8 nM.
Taken in the same sequence, the figures for `COc1cccc(-c2cc(=O)n(CCC(C)(C(=O)NO)S(C)(=O)=O)cc2F)c1F` (stereo not shown) [Example 118, 4-[5-fluoro-4-(2-fluoro-3-methoxyphenyl)-2-oxopyridin-1(2H)-yl]-N-hydroxy-2-methyl-2-(methylsulfonyl)butanamide] were 1 µg/mL (≈ 2.32 µM), over 64 µg/mL, 1 µg/mL (≈ 2.32 µM) and 0.7 nM.
Turning to `COc1cc(C#N)cc(-c2cc(=O)n(CCC(C)(C(=O)NO)S(C)(=O)=O)cc2F)c1` (stereo not shown) [Example 119, 4-[4-(3-cyano-5-methoxyphenyl)-5-fluoro-2-oxopyridin-1(2H)-yl]-N-hydroxy-2-methyl-2-(methylsulfonyl)butanamide], the values for the MIC (in the assay with PA:UC12120; in assay [1] (setting [7]); in assay [2] (setting [8])) were 64 µg/mL (≈ 146 µM), over 64 µg/mL and over 64 µg/mL, respectively. Also, the IC50 in assay [3] (Table 3) was 50.8 nM.
Turning to `CC(CCn1cc(F)c(-c2ccc3c(c2)CCO3)cc1=O)(C(=O)NO)S(C)(=O)=O` (stereo not shown) [Example 120, 4-[4-(2,3-dihydro-1-benzofuran-5-yl)-5-fluoro-2-oxopyridin-1(2H)-yl]-N-hydroxy-2-methyl-2-(methylsulfonyl)butanamide], the MIC was 1 µg/mL (≈ 2.36 µM) against PA:UC12120, over 64 µg/mL in assay [1] (setting [7]) and 2 µg/mL (≈ 4.71 µM) in assay [2] (setting [8]). Moreover, the IC50 in assay [3] (Table 3) is 0.9 nM.
`CC(CCn1cc(F)c(-c2ccc(C#N)cc2)cc1=O)(C(=O)NO)S(C)(=O)=O` (stereo not shown) [Example 124, 4-[4-(4-cyanophenyl)-5-fluoro-2-oxopyridin-1(2H)-yl]-N-hydroxy-2-methyl-2-(methylsulfonyl)butanamide]: the MIC is 8 µg/mL (≈ 19.6 µM) against PA:UC12120, over 64 µg/mL in assay [1] (setting [7]) and 32 µg/mL (≈ 78.5 µM) in assay [2] (setting [8]). Also, the IC50 in assay [3] (Table 3) was 3.4 nM.
Turning to `COc1ccccc1-c1cc(=O)n(CCC(C)(C(=O)NO)S(C)(=O)=O)cc1F` (stereo not shown) [Example 125, 4-[5-fluoro-4-(2-methoxyphenyl)-2-oxopyridin-1(2H)-yl]-N-hydroxy-2-methyl-2-(methylsulfonyl)butanamide], the MIC against PA:UC12120 is 8 µg/mL (≈ 19.4 µM); in assay [1] (setting [7]), over 64 µg/mL; in assay [2] (setting [8]), 64 µg/mL (≈ 155 µM). In addition, the IC50 in assay [3] (Table 3) was determined as 12.9 nM.

By MIC is commonly meant the least concentration at which growth counts as inhibited. Usually IC50 stands for the concentration that inhibits the measured activity by half.
